# Laboratory results published in patent US20230373934A1, “ANDROGEN RECEPTOR MODULATORS AND METHODS FOR THEIR USE” (ESSA Pharma, Inc., priority 2022, published 2023).
# Legend:
# [1] = Microsomal stability assay, liver microsome half-life (mouse); assay type: in vitro ADME; details: pH 7.4; mouse liver microsomes 0.5 mg/mL + NADPH, 1 μM compound, 37° C; read-out: Liver microsome + NADPH T½ (min) Mouse
# Excerpt: (§1) Microsomal Stability Assay: Microsomal stability assay is a widely used in vitro model to characterize the metabolic conversion by phase I enzymes, such as cytochrome P450 (CYP) enzymes. Since metabolism is known to be highly variable in different species, microsomal stability assay is commonly run in multiple species. Metabolic stability of testing compound can be evaluated using human, rat, mouse, or other animal liver or intestine microsomes to predict intrinsic clearance.
# (§2) The assay was carried out in 96-well microtiter plates at 37° C. Reaction mixtures (25 μL) contained a final concentration of 1 μM test compound, 0.5 mg/mL liver microsomes protein, and 1 mM NADPH and/or 1 mM UDPGA (with alamethicin) in 100 mM potassium phosphate, pH 7.4 buffer with 3 mM MgCl2. The incubation was done with N=1, but duplicate incubation at each time point can be prepared if necessary. At each of the time points (for example, 0, 15, 30, and 60 minutes), 150 μL of quench solution (100% acetonitrile with 0.1% formic acid) with internal standard was transferred to each well. Besides the zero minute controls, mixtures containing the same components except the NADPH can also be prepared as the negative control. Verapamil was included as a positive control to verify assay performance. Plates were sealed, vortexed, and centrifuged at 4° C. for 15 minutes at 4000 rpm. The supernatant is transferred to fresh plates for LC/MS/MS analysis.
# (§3) Summarized conditions: [Compound]=1 μM, [LM]=0.5 mg/mL, [NADPH]=1 mM and/or [UDPGA]=1 mM, Buffer=100 mM Potassium Phosphate, pH 7.4 with 3 mM MgCl2, Time=0, 15, 30, and 60 min, and Temperature=37° C.
# (§4) All samples were analyzed on LC/MS/MS using an AB Sciex API 4000 instrument, coupled to a Shimadzu LC-20AD LC Pump system. Analytical samples were separated using a Waters Atlantis T3 dC18 reverse phase HPLC column (20 mm×2.1 mm) at a flow rate of 0.5 mL/min. The mobile phase consisted of 0.1% formic acid in water (solvent A) and 0.1% formic acid in 100% acetonitrile (solvent B).
# (§5) The extent of metabolism is calculated as the disappearance of the test compound, compared to the 0-min time incubation. Initial rates are calculated for the compound concentration and used to determine half-life (t1/2).
# [2] = Microsomal stability assay, liver microsome half-life (dog); assay type: in vitro ADME; details: pH 7.4; dog liver microsomes 0.5 mg/mL + NADPH, 1 μM compound, 37° C; read-out: Liver microsome + NADPH T½ (min) Dog
# Excerpt: as §1, §2, §3, §4, §5
# [3] = Microsomal stability assay, liver microsome half-life (human); assay type: in vitro ADME; details: pH 7.4; human liver microsomes 0.5 mg/mL + NADPH, 1 μM compound, 37° C; read-out: Liver microsome + NADPH T½ (min) Human
# Excerpt: as §1, §2, §3, §4, §5
# [4] = Microsomal stability assay, liver microsome half-life (monkey); assay type: in vitro ADME; details: pH 7.4; monkey liver microsomes 0.5 mg/mL + NADPH, 1 μM compound, 37° C; read-out: Liver microsome + NADPH T½ (min) Monkey
# Excerpt: as §1, §2, §3, §4, §5
# [5] = Microsomal stability assay, liver microsome half-life (rat); assay type: in vitro ADME; details: pH 7.4; rat liver microsomes 0.5 mg/mL + NADPH, 1 μM compound, 37° C; read-out: Liver microsome + NADPH T½ (min) Rat
# Excerpt: as §1, §2, §3, §4, §5
# androgen receptor (AR) = target: T1, androgen receptor (AR) (Homo sapiens, UniProt P10275, T878A); assay: Androgen-induced PSA-luciferase assay, Luciferase Assay A (LNCaP transiently transfected with PSA (6.1 kb)-luciferase reporter); assay type: cell-based; details: LNCaP cells, 1 h pretreatment, R1881 (1 nM) 24 h, read-out: PSA-Luc IC50 Range
# T1 construct: endogenous in cells; host or cells: LNCaP
# T1 sequence (P10275 1-920 T878A): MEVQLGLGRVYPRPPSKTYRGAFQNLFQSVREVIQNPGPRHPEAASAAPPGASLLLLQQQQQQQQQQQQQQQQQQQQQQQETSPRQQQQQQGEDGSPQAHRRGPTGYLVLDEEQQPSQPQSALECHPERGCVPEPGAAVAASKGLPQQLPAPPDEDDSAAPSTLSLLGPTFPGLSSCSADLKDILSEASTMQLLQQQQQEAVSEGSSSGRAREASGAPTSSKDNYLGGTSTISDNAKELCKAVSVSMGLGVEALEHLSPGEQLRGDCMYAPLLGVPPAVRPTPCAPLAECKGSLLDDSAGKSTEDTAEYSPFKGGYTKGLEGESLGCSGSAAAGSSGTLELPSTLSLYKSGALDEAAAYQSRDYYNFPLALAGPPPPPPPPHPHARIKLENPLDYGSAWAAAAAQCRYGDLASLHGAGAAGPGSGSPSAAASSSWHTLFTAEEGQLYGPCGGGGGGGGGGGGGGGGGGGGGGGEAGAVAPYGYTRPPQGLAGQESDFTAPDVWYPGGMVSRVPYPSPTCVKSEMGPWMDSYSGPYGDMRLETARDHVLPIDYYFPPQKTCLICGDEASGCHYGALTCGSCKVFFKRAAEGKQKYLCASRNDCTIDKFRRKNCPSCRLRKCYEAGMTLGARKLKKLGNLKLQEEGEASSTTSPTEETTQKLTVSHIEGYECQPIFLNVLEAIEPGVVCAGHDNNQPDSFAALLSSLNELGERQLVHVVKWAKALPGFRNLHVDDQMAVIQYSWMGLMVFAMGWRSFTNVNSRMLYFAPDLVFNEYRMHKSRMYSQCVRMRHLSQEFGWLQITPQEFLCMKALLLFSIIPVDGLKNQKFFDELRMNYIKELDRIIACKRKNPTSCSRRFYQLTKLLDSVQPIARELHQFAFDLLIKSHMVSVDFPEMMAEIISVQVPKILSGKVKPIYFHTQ
# Outline: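 LNCaP cells transfected 24 h with PSA (6.1 kb)-luciferase reporter, pretreated 1 h with compound, then stimulated 24 h with R1881 (1 nM). Firefly luminescence in lysates normalized to protein content; IC50 from activity relative to R1881-induced vehicle control.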
compound,measurement,setting,value
CC(C)(c1ccc(-c2ccc(CNS(C)(=O)=O)nc2)cc1)c1cc(Cl)c(OCCCl)c(C#N)c1 [Compound A1],half-life at 1 μM,[1],> 120 min
same,half-life at 1 μM,[2],62 min
same,half-life at 1 μM,[3],> 120 min
same,half-life at 1 μM,[4],> 120 min
same,half-life at 1 μM,[5],61 min
same,IC50,androgen receptor (AR),0.5 to 2 µM
CC(C)(c1ccc(-c2ccc(N3CC(NS(C)(=O)=O)C3)nc2)cc1)c1cc(Cl)c(OCCCl)c(C#N)c1 [Compound A11],half-life at 1 μM,[1],> 120 min
same,half-life at 1 μM,[2],> 120 min
same,half-life at 1 μM,[3],58 min
same,half-life at 1 μM,[4],28 min
same,half-life at 1 μM,[5],103 min
same,IC50,androgen receptor (AR),0.5 to 2 µM
CC(C)(c1ccc(-c2cnn(CCNS(C)(=O)=O)c2)cc1)c1cc(Cl)c(OCCCl)c(C#N)c1 [Compound A12],half-life at 1 μM,[1],> 120 min
same,half-life at 1 μM,[2],> 120 min
same,half-life at 1 μM,[3],82 min
same,half-life at 1 μM,[4],19 min
same,half-life at 1 μM,[5],72 min
same,IC50,androgen receptor (AR),0.5 to 2 µM
"CC(C)(c1ccc(OC[C@H]2C[C@H](NS(C)(=O)=O)C2)cc1)c1cc(Cl)c(OCCCl)c(C#N)c1 [Compound A15, N-((1r,3r)-3-((4-(2-(3-chloro-4-(2-chloroethoxy)-5-cyanophenyl)propan-2-yl)phenoxy)methyl)cyclobutyl)methanesulfonamide]",half-life at 1 μM,[1],> 120 min
same,half-life at 1 μM,[2],> 120 min
same,half-life at 1 μM,[3],> 120 min
same,half-life at 1 μM,[4],> 120 min
same,half-life at 1 μM,[5],> 120 min
same,IC50,androgen receptor (AR),0.5 to 2 µM
"CS(=O)(=O)Nc1cnc2cc(-c3ccc(Oc4cc(Cl)c(OCCCl)c(C#N)c4)cc3)ccc2n1 [Compound A16, N-(6-(4-(3-chloro-4-(2-chloroethoxy)-5-cyanophenoxy)phenyl)quinoxalin-2-yl)methanesulfonamide]",half-life at 1 μM,[1],> 120 min
same,half-life at 1 μM,[2],> 120 min
same,half-life at 1 μM,[3],> 120 min
same,half-life at 1 μM,[4],> 120 min
same,half-life at 1 μM,[5],> 120 min
same,IC50,androgen receptor (AR),0.5 to 2 µM
"COc1c(Cl)cc(C(C)(C)c2ccc(OCc3ccnc(NS(C)(=O)=O)n3)cc2)cc1C#N [Compound A17, N-(4-((4-(2-(3-chloro-5-cyano-4-methoxyphenyl)propan-2-yl)phenoxy)methyl)pyrimidin-2-yl)methanesulfonamide]",half-life at 1 μM,[1],> 120 min
same,half-life at 1 μM,[2],> 120 min
same,half-life at 1 μM,[3],> 120 min
same,half-life at 1 μM,[4],> 120 min
same,half-life at 1 μM,[5],> 120 min
same,IC50,androgen receptor (AR),0.5 to 2 µM
"CS(=O)(=O)Nc1cnc2cc(-c3ccc(N(CC(F)(F)F)c4cc(Cl)c(OCCCl)c(C#N)c4)cc3)ccc2n1 [Compound A22, N-(6-(4-((3-chloro-4-(2-chloroethoxy)-5-cyanophenyl)(2,2,2-trifluoroethyl)amino)phenyl)quinoxalin-2-yl)methanesulfonamide]",half-life at 1 μM,[1],> 120 min
same,half-life at 1 μM,[2],> 120 min
same,half-life at 1 μM,[3],> 120 min
same,half-life at 1 μM,[4],> 120 min
same,half-life at 1 μM,[5],> 120 min
same,IC50,androgen receptor (AR),0.5 to 2 µM
CS(=O)(=O)Nc1ccc2cc(-c3ccc(Oc4cc(Cl)c(OCCCl)c(C#N)c4)cc3)cnc2n1 [Compound A24],half-life at 1 μM,[1],> 120 min
same,half-life at 1 μM,[2],78 min
same,half-life at 1 μM,[3],> 120 min
same,half-life at 1 μM,[4],> 120 min
same,half-life at 1 μM,[5],> 120 min
same,IC50,androgen receptor (AR),0.5 to 2 µM
